Experimental data reported in patent publication US20210230131A1, “POLYAMINO BIARYL COMPOUNDS AND THEIR USE” (INSERM (INSTITUT NATIONAL DE LA SANTÉ ET DE LA RECHERCHE …, priority 2018, published 2021).

Key:
Aβ1-40 peptide secretion = assay: Quantification of secreted Aβ1-40 by ELISA in SY5Y-APP695WT cells; type: cell-based; conditions: Homo sapiens; concentration inhibiting 50% of Aβ1-40 peptide secretion in SY5Y cells; 24 h treatment; mean ± SD of at least two experiments in triplicate
Description: (§1) Cell culture and treatment. The human neuroblastoma cell line […] was maintained in Dulbecco's modified Eagle medium (DMEM, high glucose, pyruvate-GIBCO by Life Technologies) supplemented with 10% foetal bovine serum, 2 mM L-glutamine, 1 mM non-essential amino acids and penicillin/streptomycin (GIBCO by Life Technologies) at 37° C. in a 5% CO2 humidified incubator. […] cells were maintained in 75 cm^2 culture flasks (Falcon) with supplemented DMEM medium until they reached 80% of confluence 24 h before treatment. For compounds treatment, a 10 mM stock solution was diluted in freshly supplemented DMEM medium to obtain the precise final concentration of drug. Bafilomycin A1 (BafA1), the vacuolar […] type H+ ATPase inhibitor, was purchased from Merck Millipore and was used at a final dilution of 100 nM. For drug treatment, cells were plated at a rate of 5·10^5 cells per well into 12-well plates (Falcon) and cultured with 1 mL supplemented DMEM cell medium for 24 h before drug exposure. The following day, cell medium was replaced with fresh medium containing drugs diluted at the indicated concentrations. Cells were treated for 24 h. At the end of treatments, the cell medium was collected and kept at -80° C. until use for dosage. Then, cells were rinsed once with PBS and extracted in 100 μL of Laemmli buffer (10 mM Tris, 20% glycerol and 2% Sodium dodecyl sulfate) using a cell-scraper. The cell lysate was further sonicated (30 pulses of 0.5 s, 60 Hz) for 5 min. Total protein concentration was determined using the Pierce BCA Protein Assay Kit (Thermo scientific) according to the manufacturer's instructions. Samples were stored at -80° C. until analysis. Quantification of secreted Aβ1-40/1-42 and sAPPα/sAPPβ. Conditioned media of […] collected at the end of treatments were centrifuged at 1000 g for 5 min to eliminate cells debris. Aβ1-40 and Aβ1-42 peptide concentrations in […] were determined using amyloid-beta 40 and 42 Human ELISA kits (Invitrogen) according to the manufacturer's instructions after 1:10 and 1:2 dilutions of supernatants in ELISA buffer, respectively. sAPPα and sAPPβ concentrations in ng/mL were determined using the sAPPα/sAPPβ kit (Meso Scale Diagnostics, MSD®) according to the manufacturer's instructions. Compounds of the invention (compounds 24-37, 41, 44 and 51-58) were evaluated for their ability to modulate APP processing on SY5Y human neuroblastoma cell line stably expressing the neuronal isoform of human wild-type APP695 (SYSY-APPwt). Aβ levels (Aβ1-40 and Aβ1-42) after treatment with reference and tested compounds were measured by ELISA (Table 2). […] APP carboxy-terminal fragments (αCTFs and AICD) were measured by Western blot and quantified. The effect of reference and tested compounds on αCTFs and AICD are expressed as the intensity of corresponding western-blot bands resulting from the secretase cleavages.

AICD = AICD by Western blot in SY5Y-APP695WT cells; type: cell-based, human; conditions: AICD increase compared to chloroquine ([AICD]compound/[AICD]CQ) at 3 μM; mean of at least three experiments
From the text: (§2) Antibodies. Primary antibodies used in this study for western-blot analysis included a homemade rabbit antiserum against the last 17 amino acids of human APP protein sequence, named APP-Cter-C17 (1/5000 in TBS-M). Anti-β-actin (1/10 000 in TBS-M) was obtained from Sigma. Anti-LC3B (1/2000 in TBS-BSA) and anti-p62/SQSTM1 (1/2000 in TBS-M) antibodies were purchased from Cell Signaling Technology. Secondary antibodies (peroxidase-labeled goat anti-rabbit IgG, 1/5000 or peroxidase-labeled horse anti-mouse IgG, 1/50000 in TBS-T) were obtained from Vector Laboratories.
(§3) Cell culture and treatment. The human neuroblastoma cell line SY5Y-APP^695WT was maintained in Dulbecco's modified Eagle medium (DMEM, high glucose, pyruvate—GIBCO by Life Technologies) supplemented with 10% foetal bovine serum, 2 mM L-glutamine, 1 mM non-essential amino acids and penicillin/streptomycin (GIBCO by Life Technologies) at 37° C. in a 5% CO2 humidified incubator. SY5Y-APP^695WT cells were maintained in 75 cm^2 culture flasks (Falcon) with supplemented DMEM medium until they reached 80% of confluence 24 h before treatment.
(§4) For drug treatment, cells were plated at a rate of 5·10^5 cells per well into 12-well plates (Falcon) and cultured with 1 mL supplemented DMEM cell medium for 24 h before drug exposure. The following day, cell medium was replaced with fresh medium containing drugs diluted at the indicated concentrations. Cells were treated for 24 h. At the end of treatments, the cell medium was collected and kept at −80° C. until use for dosage. Then, cells were rinsed once with PBS and extracted in 100 μL of Laemmli buffer (10 mM Tris, 20% glycerol and 2% Sodium dodecyl sulfate) using a cell-scraper. The cell lysate was further sonicated (30 pulses of 0.5 s, 60 Hz) for 5 min. Total protein concentration was determined using the Pierce BCA Protein Assay Kit (Thermo scientific) according to the manufacturer's instructions. Samples were stored at −80° C. until analysis.
(§5) Western Blot Analysis. Cell protein lysates were prepared for western-blot analysis by diluting the sample with 1 volume of NuPAGE® lithium dodecyl sulfate (LDS) 2× sample buffer supplemented with 20% NuPAGE® sample reducing agents (Invitrogen). Samples were heat 10 min at 100° C. 10 μg of total proteins per well were loaded onto a precast 4-12% Criterion XT Bis-Tris polyacrylamide gel (Bio-Rad) and electrophoresis was achieved after applying a tension of 150 V during 90 min using a Criterion electrophoresis Cell with the NuPAGE® MOPS SDS running buffer (1×). Proteins were transferred to a nitrocellulose membrane of […] pore size (G&E Healthcare) using the Criterion blotting system and applying a tension of 100 V for 45 min. To resolve proteins of low molecular weights such as carboxy-terminal fragments of APP, 12% Criterion XT Bis-Tris polyacrylamide gels (Bio-Rad) were used and electrophoresis was performed during 70 min at 150 V in a NuPAGE® MES SDS running buffer (1×). Proteins were transferred to a nitrocellulose membrane of 0.2 μm pore size (G&E Healthcare) at 100 V for 40 min. Molecular weights calibration was achieved using molecular weight markers (Novex and Magic Marks, Life Technologies). Protein transfer and quality were determined by a reversible Ponceau Red coloration (0.2% Xylidine Ponceau Red and 3% Trichloroacetic acid). Membranes were then blocked in 25 mM Tris-HCl pH 8.0, 150 mM NaCl, 0.1% Tween-20 (v/v) (TBS-T) and 5% (w/v) of skimmed milk (TBS-M) or 5% (w/v) of bovine serum albumin (TBS-BSA) depending on the antibody during 1 h. Membrane was rinsed three-times 10 min in TBS-T before incubation with the primary antibody overnight at 4° C. Membrane was rinsed 3 times 10 min with TBS-T and then incubated with the secondary antibody for 45 min at room temperature (RT). […] Quantifications of protein expression levels were performed with ImageJ Software (NIH). […]

CTFα = assay: APP carboxy-terminal fragment αCTF by Western blot in SY5Y-APP695WT cells; type: cell-based, human; conditions: CTFα increase compared to chloroquine ([CTF]compound/[CTF]CQ) at 3 μM; mean of at least three experiments
From the text: as §2, §3, §4, §5

Aβ1-42 peptide secretion = assay: Quantification of secreted Aβ1-42 by ELISA in SY5Y-APP695WT cells; type: cell-based; conditions: Homo sapiens; concentration inhibiting 50% of Aβ1-42 peptide secretion in SY5Y cells; 24 h treatment; mean ± SD of at least two experiments in triplicate
Description: as §1

Row | SMILES | IC50 (Aβ1-40 peptide secretion) | AICD vs CQ (3 μM) (AICD) | CTFα vs CQ (3 μM) (CTFα) | IC50 (Aβ1-42 peptide secretion)
1 | CN(C)CCCNc1ccc(-n2ccc(CN3CCOCC3)c2)cc1OCCN1CCCCC1 [Compound 57, N-[3-(Dimethylamino)propyl]-4-[3-(morpholine-4-ylmethyl)-1H-pyrrol-1-yl]-2-[2-(piperidin-1-yl)ethoxy]aniline] | 2.8 ± 1.1 µM | 2.6 | 2.2 | 3.4 ± 2 µM
2 | CN(C)CCCNc1ccc(-n2ccc(CN(C)C)c2)cc1OCCN1CCCCC1 [Compound 55, 4-(3-[(dimethylamino)methyl]-1H-pyrrol-1-yl)-N-[3-(dimethylamino)propyl]-2-[2-(piperidin-1-yl)ethoxy]aniline] | 6.1 ± 0.7 µM | 0.8 | 1.2 | 8 ± 1.6 µM
3 | c1cc(CN2CCCCC2)cc(-c2ccc(NCCCN3CCCCC3)c(OCCN3CCCCC3)c2)c1 [Compound 26, 2-[2-(1-piperidyl)ethoxy]-4-[3-(1-piperidylmethyl)phenyl]-N-[3-(1-piperidyl)propyl]aniline] | 4.3 ± 0.7 µM | 2.6 | 3.3 | 4.8 ± 0.6 µM
4 | CN(C)Cc1ccccc1-c1cccc(OCCN2CCCCC2)c1 [Compound 41, N,N-Dimethyl-1-(3′-(2-(piperidin-1-yl)ethoxy)-[1,1′-biphenyl]-2-yl)methanamine] | 1.5 ± 0.3 µM | 0.7 | 0.6 | 1.2 ± 0.3 µM
5 | c1ccc(-c2ccc(NCCCN3CCCCC3)c(OCCN3CCCCC3)c2)cc1 [Compound 37, 3-(2-(Piperidin-1-yl)ethoxy)-N-(3-(piperidin-1-yl)propyl)-[1,1′-biphenyl]-4-amine] | 5.2 ± 0.1 µM | 2.1 | 2.4 | 4 ± 0.4 µM
6 | CN(C)CCCNc1ccc(-n2ccc(CN3CCN(C)CC3)c2)cc1OCCN1CCCCC1 [Compound 58, N-[3-(dimethylamino)propyl]-4-(3-[(4-methylpiperazin-1-yl)methyl]-1H-pyrrol-1-yl}-2-[2-(piperidin-1-yl)ethoxy]aniline] | 5.1 ± 1.3 µM | 1.8 | 3.0 | 5.4 ± 0.4 µM
7 | CN(C)Cc1ccccc1-c1ccc(NCCN2CCCCC2)c(OCCCN2CCCCC2)c1 [Compound 34, 2′-((Dimethylamino)methyl)-N-(2-(piperidin-1-yl)ethyl)-3-(3-(piperidin-1-yl)propoxy)-[1,1′-biphenyl]-4-amine] | 2 ± 0.2 µM | 3.4 | 4.5 | 1.8 ± 0.7 µM
8 | CN(C)Cc1ccn(-c2ccc(NCCCN3CCCCC3)c(OCCN3CCCCC3)c2)c1 [Compound 51, 4-(3-[(Dimethylamino)methyl]-1H-pyrrol-1-yl)-2-[2-(piperidin-1-yl)ethoxy]-N-[3-(piperidin-1-yl)propyl]aniline] | 5 ± 0.9 µM | 2.0 | 3.6 | 6.5 ± 2 µM
9 | CN(C)Cc1ccccc1-c1ccc(NCCN2CCCCC2)c(OCCN2CCCCC2)c1 [Compound 33, 2′-((Dimethylamino)methyl)-3-(2-(piperidin-1-yl)ethoxy)-N-(2-(piperidin-1-yl)ethyl)-[1,1′-biphenyl]-4-amine] | 1.4 ± 0.5 µM | 4.8 | 5.0 | 1.2 ± 0.6 µM
10 | CN1CCN(Cc2ccccc2-c2ccc(NCCCN3CCCCC3)c(OCCN3CCCCC3)c2)CC1 [Compound 29, 4-(2-[(4-Methylpiperazin-1-yl)methyl]phenyl)-2-[2-(piperidin-1-yl)ethoxy]-N-[3-(piperidin-1-yl)propyl]aniline] | 2.6 ± 0.2 µM | 3.7 | 5.1 | 2.7 ± 0.8 µM
11 | CN1CCN(Cc2ccn(-c3ccc(NCCCN4CCCCC4)c(OCCN4CCCCC4)c3)c2)CC1 [Compound 54, 4-(3-[(4-Methylpiperazin-1-yl)methyl]-1H-pyrrol-1-yl)-2-[2-(piperidin-1-yl)ethoxy]-N-[3(piperidin-1-yl)propyl]aniline] | 8.3 ± 4 µM | – | – | 12.1 ± 7.8 µM
12 | CN(C)CCCNc1ccc(-n2ccc(CN3CCCCC3)c2)cc1OCCN1CCCCC1 [Compound 56, N-[3-(Dimethylamino)propyl]-2-[2-(piperidin-1-yl)ethoxy]-4-[3-(piperidin-1-ylmethyl)-1H-pyrrol-1-yl]aniline] | 5.3 ± 0.1 µM | 2.7 | 2.5 | 6.3 ± 0.7 µM
13 | CCN(CC)CCCC(C)Nc1ccnc2cc(Cl)ccc12 (stereo not drawn) [CQ, chloroquine, reference compound] | – | 1 | 1 | –
